From US20260297542A1, “HERBICIDE RESISTANT PLANTS” (SYNGENTA CROP PROTECTION AG, priority 2023, published 2026)
Positions count from the first letter of the chain named.

Experiments:
[1] = molecular target: T1, AtPPO1 V365L Y426V L479N (SEQ ID NO.126) (Arabidopsis thaliana, UniProt P55826, L479N/V365L/Y426V); assay: fluorescent Protoporphyrinogen Oxidase assay, crude extract; type: biochemical; settings: read-out: percentage inhibition
T1 construct: made in house; host or cells: E. coli BL21 (DE3) hemG, crude extract
T1 sequence (P55826 35-537 V365L/Y426V/L479N): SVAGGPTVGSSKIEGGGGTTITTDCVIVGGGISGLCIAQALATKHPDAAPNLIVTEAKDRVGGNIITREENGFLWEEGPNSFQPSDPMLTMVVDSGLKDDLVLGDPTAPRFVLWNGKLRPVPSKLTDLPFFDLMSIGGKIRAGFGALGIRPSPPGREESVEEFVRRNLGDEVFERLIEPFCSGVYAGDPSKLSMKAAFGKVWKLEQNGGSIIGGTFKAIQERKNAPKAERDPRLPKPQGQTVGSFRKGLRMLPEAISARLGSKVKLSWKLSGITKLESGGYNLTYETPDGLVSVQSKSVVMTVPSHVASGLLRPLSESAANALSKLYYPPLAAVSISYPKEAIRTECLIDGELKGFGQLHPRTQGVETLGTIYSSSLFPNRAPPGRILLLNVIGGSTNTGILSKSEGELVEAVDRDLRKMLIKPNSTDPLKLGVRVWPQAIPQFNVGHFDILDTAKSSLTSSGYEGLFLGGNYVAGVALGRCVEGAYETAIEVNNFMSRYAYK

[2] = molecular target: T2, AtPPO1 S305L Y361T V365L T431R L479M (SEQ ID NO.130) (Arabidopsis thaliana, UniProt P55826, L479M/S305L/T431R/V365L/Y361T); assay: as above; type: biochemical; settings: read-out: percentage inhibition
T2 construct: made in house; host or cells: E. coli BL21 (DE3) hemG, crude extract
T2 sequence (P55826 35-537 S305L/Y361T/V365L/T431R/L479M): T1 sequence (P55826 35-537 V365L/Y426V/L479N) with S271L, Y327T, V392Y, T397R, N445M

Row | Structure (SMILES) | inhibition at 0.1 ppm [1] [%] | inhibition at 1 ppm [1] [%] | inhibition at 10 ppm [1] [%] | inhibition at 100 ppm [1] [%] | inhibition at 0.1 ppm [2] [%] | inhibition at 1 ppm [2] [%] | inhibition at 10 ppm [2] [%] | inhibition at 100 ppm [2] [%]
1 | CCOC(=O)[C@]1(C)CC(c2cc(-n3c(=O)n(C)c(=S)n(C)c3=O)c(F)cc2Cl)=NO1 [Herbicide D, ethyl (5S)-3-[2-chloro-5-(3,5-dimethyl-2,6-dioxo-4-thioxo-1,3,5-triazinan-1-yl)-4-fluoro-phenyl]-5-methyl-4H-isoxazole-5-carboxylate] | 12 | 33 | 89 | 98 | 12 | 42 | 89 | 92
2 | CCOC(=O)C1(C)CC(c2cc(-n3c(=O)cc(C(F)(F)F)n(C)c3=O)c(F)cc2Cl)=NO1 (stereo not drawn) [Herbicide C, 3-(2-chloro-4-fluoro-5-(3-methyl-2,6-dioxo-4-trifluoromethyl-3,6-dihydropyrimidin-1(2H)-yl)phenyl)-5-methyl-4,5-dihydroisoxazole-5-carboxylic acid ethyl ester] | 4 | 44 | 82 | 93 |  | 78 | 99 | 97
3 | C#CCN1C(=O)C(F)(F)Oc2cc(F)c(-n3c(=O)n(C)c(=S)n(C)c3=O)cc21 [Herbicide B, trifludimoxazin] | 98 | 100 | 100 | 100 | 41 | 100 | 97 | 98
4 | CC(C)N(C)S(=O)(=O)NC(=O)c1cc(-n2c(=O)cc(C(F)(F)F)n(C)c2=O)c(F)cc1Cl [Herbicide E, saflufenacil] | 0 | 22 | 77 | 94 | 9 | 45 | 82 | 91
5 | CCOC(=O)COc1ncccc1Oc1cc(-n2c(=O)cc(C(F)(F)F)n(C)c2=O)c(F)cc1Cl [Herbicide A, epyrifenacil] | 0 | 36 | 73 | 90 | 15 | 69 | 99 | 94
